How the values were obtained:
Type in all cases: cell-based
[1] = system: Mannheimia succiniciproducens MBEL55E; assay: Production of succinic acid by fermentation with biotin replaced by 5-ALA
Experimental: In this preferred embodiment, biotin (10˜20 mg/L) in culture medium is replaced by 0.1˜1 mg/L of 5-ALA, for fermentation experiment.
The microorganism adopts large Mannheimia succiniciproducens MBEL55E (strain from patents of publication No. EP2096177 and No. EP2199304).
Cultivation in fermenter: transfer activated seed liquid and sterilized glucose into fermenter; inoculum size shall be 7% (volume ratio); stirring speed shall be 200 rpm; allow fermentation at 37° C.; amount of CO2 connected shall be 0.25 vvm.
Conventional compositions of fermentation culture medium (g/L): 10 of mixed carbohydrate obtained from pre-treated stalk (measured total carbohydrate concentration), 3 of disodium fumarate, 4 of KH2PO4, 0.4 of MgCl2.6H2O, 0.4 of CaCl2, and 2 of NaCl; sterilize at pH value of 7.0 and 121° C. for 15 min; ammonia is adopted as neutralizing agent.

[2] = system: Actinobacillus succinogenes NJ113 (CGMCC 1716); assay: Fermentation in defined medium with one growth factor missing (serum bottle, 30 h); conditions: for bacterial growth / glucose remaining / succinic acid production: culture medium lacks the named growth factor; for OD660 / Residual glucose / Succinic acid: medium lacking the named growth factor, 30 h, 37° C., 200 rpm
Description: To investigate the effect of critical factors on succinic acid production described by this invention can use any microorganism germ seed used for production of succinic acid using anaerobic fermentation in existing technology. This preferred embodiment uses NJ113 (Actinobacillus succinogenes NJ113), which has been patented (authorized publication No.: CN100537744C).
First, significance and effect of various amino acids, vitamins, and metallic microelements on bacterial growth and metabolism has been investigated on defined medium. Particular operation and cultivation conditions are as follows:
(1) Preparation of amino acid mixed liquids: Remove each one type of amino acid from the 18 types of amino acid being tested, to prepare a mixed liquid of remaining 17 types of amino acid of suitable concentration (suitable concentration refers to the concentration at which the substance of lowest solubility is completely dissolved), as well as a mixed liquid containing all 18 types of amino acid. Quantity of each such liquid is 100 mL. After filtration sterilization by 0.22 μm sterile filtering head, keep these liquids for later use. Refer to Attached Table 1 for contents of various amino acids in the culture medium.
(2) Preparation of vitamin mixed liquids: Using the method in […], remove each one type of vitamin from the 10 types of vitamin being tested, to prepare a mixed liquid of remaining 9 types of vitamin of suitable concentration (suitable concentration refers to the concentration at which the substance of lowest solubility is completely dissolved), as well as a mixed liquid containing all 10 types of vitamin. Quantity of each such liquid is 100 mL. After filtration sterilization by 0.22 μm sterile filtering head, keep these liquids for later use. Refer to Attached Table 1 for contents of various vitamins in the culture medium.
(3) Preparation of metallic microelement mixed liquids: Using the method in step (1), remove each one type of metal salt from the 12 types of metal salt being tested, to prepare a mixed liquid of remaining 11 types of metal salt of suitable concentration (suitable concentration refers to the concentration at which the substance of lowest solubility is completely dissolved), as well as a mixed liquid containing all 12 types of metal salt. Quantity of each such liquid is 100 mL. After sterilization at 121° C. for 15 min, keep these liquids for later use. Refer to Attached Table 1 for contents of various metal salts in the culture medium.
Conventional compositions of fermentation culture medium (g/L): 90 of glucose (separately sterilized), 1 of disodium fumarate, 2 of KH2PO4, 0.2 of MgCl2.6H2O, 0.2 of CaCl2, and 1 of NaCl; sterilized at pH of 7.0 and 121° C. for 15 min; sodium carbonate adopted as neutralizing agent.
In a 100 mL serum bottle, add […] of fermentation culture medium and 1 mL of Actinobacillus succinogenes NJ113 (CGMCC 1716) seed liquid that has been washed by sterilized water; sterilize at 121° C. for 15 min; and then add 4 mL of reserved mixed liquid not containing a type of amino acid, 0.5 mL of reserved mixed liquid containing all vitamins being tested, 1 mL of reserved mixed liquid containing all types of metal salt being tested, and […] of sterilized 600 g/L glucose, so that after inoculation, the total volume reaches 20 mL and glucose concentration is 30 g/L.
Use the same method to prepare fermentation culture medium that lacks a certain type of vitamin or metal salt.
Carry out fermentation of above culture media under the following conditions:
At mechanical shaker speed of 200 rpm and 37° C., allow fermentation for 30 h and then detect content of succinic acid in the fermentation liquid.

Escherichia coli = assay: Production of succinic acid by fermentation at different biotin concentrations
Experimental: This preferred embodiment reduces biotin consumption in the culture medium. Particular method of change of fermentation culture medium is described below.
Germ seed: Escherichia coli (strain from patent of publication No. CN102154339A)
Cultivation in fermenter: transfer activated seed liquid and sterilized glucose into fermenter; inoculum size shall be 5% (volume ratio); stirring speed shall be 200 rpm; allow fermentation at 37° C.; amount of CO2 connected shall be 0.25 vvm.
Conventional compositions of fermentation culture medium (g/L): 30 of glucose (separately sterilized), 2 of disodium fumarate, 3 of KH2PO4, 0.3 of MgCl2.6H2O, 0.23 of CaCl2, and 1 of NaCl; sterilized at pH of 7.0 and 121° C. for 15 min; sodium carbonate adopted as neutralizing agent.
In a 100 mL serum bottle, add 15 g/L of Na2HPO4, 4 g/L of KH2PO4, 13.1 mL of water, and 1 mL of Actinobacillus succinogenes NJ113 (CGMCC 1716) seed liquid after being washed by sterilized water; sterilize at 121° C. for 15 min, and then add 4 mL of reserved mixed liquid containing corresponding concentrations of amino acids, 0.5 mL of mixed liquid of vitamins including niacin and biotin so that […], 1 mL of reserved mixed liquid containing all metal salts being tested, and 0.4 mL of sterilized 500 g/L glucose solution, so that total volume after inoculation reaches 20 mL and glucose concentration is 10 g/L.
Fermentation experiment of above culture media containing different concentrations of biotin has been carried out under the same fermentation conditions as preferred embodiment 1:
According to identical germ seed, fermentation conditions, and experiment method of this preferred embodiment, biotin consumption in the culture medium is further lowered, to concentrations of 50 μg/L, 100 μg/L, 150 μg/L, 200 μg/L, and 300 μg/L respectively, for fermentation experiment: […]

[3] = 5-ALA 0.1~1 mg/L replacing biotin

NCC(=O)CCC(=O)O [5-ALA, 5-aminolevulinate]
Residual glucose [1, 3]: 3.4 g/L
Succinic acid [1, 3]: 15.6 ± 0.2 g/L
output of succinic acid compared with biotin ([1]; biotin completely replaced by 5-ALA): can realize the highest output of succinic acid that can be obtained using biotin

O=C(O)CCCC[C@@H]1SC[C@@H]2NC(=O)N[C@@H]21 [Biotin, biotin]
bacterial growth [2]: relatively poor
glucose remaining [2]: large amount of glucose remains
succinic acid production [2]: very low
OD660 [2]: 0.3
Residual glucose [2]: 6.9 g/L
Succinic acid [2]: 0.7 g/L
Residual glucose (Escherichia coli; biotin 50 μg/L): 23 g/L
Succinic acid (Escherichia coli; biotin 50 μg/L): 1.6 g/L
Residual glucose (Escherichia coli; biotin 100 μg/L): 2.2 g/L
Succinic acid (Escherichia coli; biotin 100 μg/L): 15.8 g/L
Residual glucose (Escherichia coli; biotin 150 μg/L): 2.6 g/L
Succinic acid (Escherichia coli; biotin 150 μg/L): 16.2 g/L
Residual glucose (Escherichia coli; biotin 200 μg/L): 2.5 g/L
Succinic acid (Escherichia coli; biotin 200 μg/L): 16.8 g/L
Residual glucose (Escherichia coli; biotin 300 μg/L): 2.8 g/L
Succinic acid (Escherichia coli; biotin 300 μg/L): 16.7 g/L
Residual glucose (Escherichia coli; biotin 2 mg/L): 0 g/L
Succinic acid (Escherichia coli; biotin 2 mg/L): 18.8 g/L
Residual glucose (Escherichia coli; biotin 4 mg/L): 0 g/L
Succinic acid (Escherichia coli; biotin 4 mg/L): 18.6 g/L
Residual glucose (Escherichia coli; biotin 6 mg/L): 0 g/L
Succinic acid (Escherichia coli; biotin 6 mg/L): 17.7 g/L
Residual glucose (Escherichia coli; biotin 8 mg/L): 0 g/L
Succinic acid (Escherichia coli; biotin 8 mg/L): 19.4 g/L
Residual glucose (Escherichia coli; biotin 10 mg/L): 0 g/L
Succinic acid (Escherichia coli; biotin 10 mg/L): 18.7 g/L
Residual glucose (Escherichia coli; biotin 20 mg/L): 0 g/L
Succinic acid (Escherichia coli; biotin 20 mg/L): 18.5 g/L

N[C@@H](CCC(=O)O)C(=O)O [Glutamic acid]
bacterial growth [2]: relatively poor
glucose remaining [2]: large amount of glucose remains
succinic acid production [2]: very low
OD660 [2]: 0.4
Residual glucose [2]: 8.1 g/L
Succinic acid [2]: 0.5 g/L

CSCC[C@H](N)C(=O)O [Methionine]
bacterial growth [2]: relatively poor
glucose remaining [2]: large amount of glucose remains
succinic acid production [2]: very low
OD660 [2]: 0.6
Residual glucose [2]: 4.3 g/L
Succinic acid [2]: 1.3 g/L

O=C(O)c1cccnc1 [Niacin]
bacterial growth [2]: relatively poor
glucose remaining [2]: large amount of glucose remains
succinic acid production [2]: very low
OD660 [2]: 0.2
Residual glucose [2]: 5.6 g/L
Succinic acid [2]: 0.1 g/L

From patent US20140242673A1, “CHEMICALLY DEFINED CULTURE MEDIUM FOR FERMENTATION TO PRODUCE SUCCINIC ACID AND APPLICATION THEREOF” (NANJING UNIVERSITY OF TECHNOLOGY, priority 2011, published 2014)
